Results on one compound are retold here after BindingDB's records for doi:10.7270/Q2ZP44H3 (Vanderbilt Screening Center For Gpcrs, Ion Channels and …, 2009).

This assay concerns the target T1, Solute carrier family 12 member 5 (Homo sapiens, UniProt Q9H2X9).
T1 sequence (Q9H2X9 whole entry): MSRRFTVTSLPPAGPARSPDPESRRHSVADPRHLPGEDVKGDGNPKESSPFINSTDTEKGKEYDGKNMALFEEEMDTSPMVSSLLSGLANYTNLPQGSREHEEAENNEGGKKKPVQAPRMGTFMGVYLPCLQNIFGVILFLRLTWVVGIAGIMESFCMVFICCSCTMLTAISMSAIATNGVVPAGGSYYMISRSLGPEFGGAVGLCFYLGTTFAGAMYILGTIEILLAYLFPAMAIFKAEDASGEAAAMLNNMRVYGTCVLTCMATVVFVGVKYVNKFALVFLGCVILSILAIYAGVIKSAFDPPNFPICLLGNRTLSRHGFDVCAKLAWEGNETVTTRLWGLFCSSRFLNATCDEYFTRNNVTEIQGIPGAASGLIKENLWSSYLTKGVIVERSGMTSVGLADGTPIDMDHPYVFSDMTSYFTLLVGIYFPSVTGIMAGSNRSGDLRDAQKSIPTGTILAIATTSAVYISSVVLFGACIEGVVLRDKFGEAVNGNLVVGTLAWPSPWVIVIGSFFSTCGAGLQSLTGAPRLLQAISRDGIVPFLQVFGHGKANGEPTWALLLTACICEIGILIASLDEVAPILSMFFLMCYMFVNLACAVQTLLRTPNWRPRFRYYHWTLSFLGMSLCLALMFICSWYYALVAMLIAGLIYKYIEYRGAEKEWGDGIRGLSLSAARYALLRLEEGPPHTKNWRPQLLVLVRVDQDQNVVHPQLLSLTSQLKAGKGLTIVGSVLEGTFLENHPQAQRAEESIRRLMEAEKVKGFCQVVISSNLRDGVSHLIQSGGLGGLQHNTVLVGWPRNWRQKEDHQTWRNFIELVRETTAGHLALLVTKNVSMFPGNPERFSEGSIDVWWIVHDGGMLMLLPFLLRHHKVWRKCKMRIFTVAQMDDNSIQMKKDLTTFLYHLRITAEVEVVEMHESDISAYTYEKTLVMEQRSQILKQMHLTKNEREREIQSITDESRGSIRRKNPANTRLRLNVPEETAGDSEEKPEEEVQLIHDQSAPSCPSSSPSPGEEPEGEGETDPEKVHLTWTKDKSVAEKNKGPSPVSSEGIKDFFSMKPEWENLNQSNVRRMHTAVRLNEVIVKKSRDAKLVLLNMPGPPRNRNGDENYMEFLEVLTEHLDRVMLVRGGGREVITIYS
Briefly: KCC2 and NKCC1 inhibition by rubidium flux, cell-based, NKCC1 counter-screen (AID 1734).

In general, IC50 refers to the concentration that gives 50% inhibition. Lower therefore signals greater potency.

As to `CCOc1ccc(-n2c(O)c3c(c2O)C(C=Cc2ccccc2)c2sc(=O)[nH]c2S3)cc1` (stereo unspecified), the IC50 came out at 300 nM.
